From patent US20240350492A1, “Methods for the Prevention and Treatment of Hearing Loss” (Ting Therapeutics LLC, priority 2020, published 2024) come the findings set out here.

Structures are written as SMILES.

One data set has as its system adult FVB mice. The data set can be described thus: Mouse model of acute noise-induced hearing loss (ABR, DPOAE, synaptic ribbon counts). The conditions noted are these: no noise trauma; vs saline + noise and Afatinib + noise groups.
The subject of data set [1] is zebrafish neuromast hair cells. The data set can be described thus: Zebrafish cisplatin ototoxicity, neuromast hair cell count. In kind it is in vivo.
In data set [2] the test system is EGFR downstream signaling pathways (AKT and MAPK). The data set can be described thus: Western blotting of EGFR downstream kinases in organ of Corti after transtympanic injection. The conditions noted are these: middle ear trans tympanic injection, 20 mg/ml; P28 FVB mice. In kind it is in vivo, mouse. Here is the method: […]. […] Quarter 2 in the flow plot presents cells that are positive for EGFR. (B) P28 FVB mice were injected transtympanically with DMSO or 20 mg/ml of AG1478. Western blotting was performed on pooled organs of Corti to detect the phosphorylation of EGFR downstream kinases. (C) Zebrafish not injected or injected with 2 ng of scrambled or EGF ligand (EGFL) specific morpholinos (Gene Tools). […]. Quantification of the HCs was performed in SO3, O1 and O2 neuromasts. P<0.0001 versus the corresponding control (One-way ANOVA). […] (D) PCR from scrambled and EGFL morphants.
Now referring to FIGS. 2A-D, to determine whether functional EGFR is expressed in the adult cochlea, flow cytometry was used to identify epithelial cells that express EGFR protein in the adult cochlea (FIG. 2A). In P28 FVB mice, excluding dead cells and those with autofluorescence, we detected 1140±88 EGFR+; EpCAM+ (an epithelial cell marker) cells from one cochlea (Mean±SEM, n=4).
Background: Immunoblotting shows a protein as a band on a membrane.

From the text for adult FVB mice: Subcutaneous needle electrodes were inserted behind the pinna (inverting), vertex of the skull (non-inverting) and base of the tail (ground). Tone bursts of 5 ms duration with 0.5 ms cosine-squared envelopes delivered at a rate of 21 stimuli per second with alternating polarity were generated using BioSigRZ software and RZ6 multi I/O processor system (Tucker-Davis Technologies, FL). Stimuli were presented as open field via a speaker (MF1; TDT, FL) placed 10 cm in front of the pinna of the animal. […] Stimulus intensity was decreased in 5 dB increments, starting from 100 db SPL to 0 dB SPL. […] Before the start of every session, stimulus presenting speaker (MF1) was calibrated with a ¼″ microphone (PCB-378C10; PCB Piezotronics, NY) that was also placed 10 cm in front of the speaker.
Another group of mice were administered saline. […] ABR and DPOAE thresholds were recorded prior, 7 days, or 14 days post noise exposure.
These groups of mice were additionally tested for DPOAE threshold.

For the molecule `CN(C)C/C=C/C(=O)Nc1cc2c(Nc3ccc(F)c(Cl)c3)ncnc2cc1O[C@H]1CCOC1` [Afatinib], the “DPOAE threshold, Afatinib without noise trauma” value in the data set with adult FVB mice is given as “reduced DPOAE threshold at all f2 frequencies”. As for `O=C(CCCCCCC(=O)Nc1ccccc1)NO` [Vorinostat], in data set [1] (doses of 0.002, 0.0183 and 0.165 μM, 1 hour pre-incubation, then 400 µM cisplatin for 4 hours), the “protection against CIHL” value is recorded as “showed protection against CIHL”. Further, the “Cisplatin damage in HCs at SO3 and O1-2 neuromasts” value in data set [1] (pretreated with various doses) is “significantly reduced Cisplatin damage”. As for `COc1cc2ncnc(Nc3cccc(Cl)c3)c2cc1OC` [AG1478], the “EGFR downstream signaling (AKT and MAPK) in the organ of Corti” value in data set [2] is “significantly suppressed”.
